# Data published in patent US20230339835A1, “2,3,5-TRIMETHYL-6-NONYLCYCLOHEXA-2,5-DIENE-1,4-DIONE FOR SUPPRESSING AND TREATING ALPHA-SYNUCLEINOPATHIES, TAUOPATHIES, AND OTHER DISORDERS” (PTC THERAPEUTICS, INC., priority 2018, published 2023).
# Marks after values point to notes of the source that are not given here.
# Experiments:
# [1] = Humidification cycling by dynamic vapor sorption (DVS); type: physicochemical
# Procedure: As-received material (ID 1-1) was subjected to humidification cycling by dynamic vapor sorption (DVS) instrument. The material underwent a 0.01% change in mass in the 15-75% relative humidity range, and a 0.08% change in mass over the full range of 2-95% relative humidity. Following humidification cycling, the solid was analyzed by XRPD.
# [2] = Solubility in simulated fluids and water; type: physicochemical
# Procedure: Solubility of Pattern A and melted solid was assessed in Fasted-State Simulated Gastric Fluid (FaSSGF), Fed-State Simulated Intestinal Fluid (FeSSIF), and Fasted-State Simulated Intestinal Fluid (FaSSIF), water, and 0.5% methyl cellulose+2% Tween80 in water. Five foil-covered 4 mL vials were prepared with 11-13 mg of as-received material (ID-1-1), 10 mm stir bars were included. Five foil-covered 4 mL vials containing between 11-13 mg of C9 were melted on a hot plate at 70° C. for 10 min and cooled to room temperature for 5 min, 10 mm stir bars were included.
# Slurries were prepared with the as-received material ID-1-1 (Pattern A) and melted C9, each in 2.5 mL of simulated fluids (including 0.5% methyl cellulose+2% Tween80 in water), or water. The samples containing melted active pharmaceutical ingredient (API) were sonicated briefly, as they appeared to contain clumps of material. […] For solubility analysis 1 mL of each sample was pipetted into a syringe filter, the first 0.5 mL was filtered back into the source vial and the remaining 0.5 mL was filtered into HPLC vials with low volume inserts.
# The response factor calculated with the calibration points was used to determine the concentrations of API in the simulated fluids and water. Calibration samples were prepared with as-received material (ID-1-1) in ACN. The concentrations and peak areas for each calibration point were plotted and a response factor calculated for solubility assessment.
# Due to high pressures observed with the UPLC column, a different column and a modified method was employed for 24 h data points with 0.5% methyl cellulose+2% Tween80 in water, and 24 h in water (ID-30-4, ID-30-9 and ID-30-10). HPLC samples of ID-30-4 and 30-9 (those containing the methyl cellulose/Tween80 mixture) were diluted 10× with ACN. These samples plus a new set of injections of the calibration points were analyzed, a new response factor was determined, and the solubility of the remaining samples was calculated (response factor: 8084.7908; R2: 0.9989).
# [3] = Solid form stability, one week at 75% RH and 40° C.; type: physicochemical; conditions: 7 days, 75% relative humidity
# Procedure: The solid form stability of the material was assessed over one week. 49.0 mg of ID-1-1 was placed inside of a foil-covered 4 mL vial, which was covered with a KimWipe. This vial was placed inside a 20 mL vial containing saturated aqueous sodium chloride. The vial was placed on a hot plate at 40° C. for 7 days, creating an atmosphere of 75% relative humidity in the system. After 7 days, the solid was sampled for HPLC (ID-4-1).
# A sample of the stressed material was plated and analyzed by XRPD; the observed pattern was Pattern A. The XRPD data is shown in FIG. 16. Microscopy images of ID-4-1 were captured at 100× and 400× magnification. The images are shown in FIG. 17A (100×) and FIG. 17B (400×).
# [4] = system: C57Bl/6 mice, MPTP-induced model of PD; assay: Mouse MPTP model of Parkinson's Disease, open field locomotor assay; type: in vivo; conditions: MPTP 60 mg/kg (3 x 20 mg/kg at two-hour intervals)
# Excerpt: Animals. Species: Mouse. Strain: C57Bl/6. Source of Animals: Charles River. Age: 6 to 7 weeks. Sex: Male. Randomization: Animals were assigned randomly to treatment groups. Blinding of Study: Experimenters were blinded to the experimental treatments
# Housing and Feeding. Acclimation/Conditioning: Not less than three days. Housing: Mice were housed on a 12 hr light/dark cycle (lights on 6:00 AM) No more than 4 mice per cage. Ventilated cage rack system. Diet: Standard rodent chow and water ad libitum.
# Design Parameters. Route(s) of administration: PO. Dose Volume: PO: 5 mL/kg. Formulation(s): formulated by Melior according to directions from BioElectron. Vehicle-sesame oil (Spectrum Chemical, NF Catalog #SE130, CAS #8008-74-0). Dose Levels: 300 mg/kg. Dose Frequency: QD starting Day −2 (MPTP=Day 0) and until Day 7. Study duration: 11 days. Pretreatment time (up to 2 hrs): For Day 0 (MPTP Day): 30 min, Pretreatment time for Open Field Assay/Locomotor Activity (OFA/LMA) assay: 1 hr. Number of Groups: 3. Number of animals per group: 10. Total number of animals: 30 (in the study), 42 animals total (To ensure a proper power analysis of at least 10 animals/group, for all groups receiving MPTP, 4 additional animals were added to mitigate study impacts if there were MPTP-induced fatalities).
# MPTP Treatment. MPTP was formulated in phosphate buffered saline and administered to mice three times at a dose of 20 mg/kg (1 mg/mL delivered at 20 mL/kg) at two-hour intervals (final dose of MPTP=60 mg/kg).
# Locomotor activity. One day prior (baseline) and on Day 7 after MPTP administration (Day (−1) and Day 7), mice were monitored for various aspects of locomotor function using a fully automated open-field apparatus (Med-Associates, Inc). The apparatus consisted of a 10.75″×10.75″ arena enclosed in a sound-attenuated box, equipped with the fan and house light. […]
# Data analysis. Data were averaged and are expressed as the average±SEM.
# Data were analyzed by one-way ANOVA followed by a post-hoc tests. p-values of less than 0.05 were considered to be statistically significant from control.
SMILES,DVS Change Mass (wt. %) ([1]; 2-95% RH),DVS Change Mass (wt. %) ([1]; 15-75% RH),change in mass (DVS) ([1]; 15-75% relative humidity range) [%],hygroscopicity ([1]; DVS humidification cycling),change in mass (DVS) ([1]; full range of 2-95% relative humidity) [%],"Solubility at 24 hours ([2]; 0.5% MC + 2% Tween80 (aq), Phenomenex Luna Phenyl Hexyl HPLC column and modified method) [µg/mL]","Solubility at 24 hours (mg/mL) ([2]; 0.5% MC + 2% Tween80 (aq), Phenomenex Luna Phenyl Hexyl HPLC column and modified method, listed as A)",Conc. (mg/mL) at 30 min ([2]; 0.5% MC + 2% Tween80 (aq.)) [mg/mL],Conc. (mg/mL) at 30 min ([2]; FaSSGF),Solubility at 24 hours (mg/mL) ([2]; FaSSGF),Conc. (mg/mL) at 30 min ([2]; FaSSIF) [mg/mL],Solubility at 24 hours (mg/mL) ([2]; FaSSIF),Conc. (mg/mL) at 30 min ([2]; FeSSIF) [mg/mL],Solubility at 24 hours ([2]; FeSSIF) [µg/mL],Conc. (mg/mL) at 30 min ([2]; water),Solubility at 24 hours (mg/mL) ([2]; water),XRPD pattern of stressed material [3],impurities by HPLC in stability sample [3],depletion of dopamine in the striatum [4] [%]
"CCCCCCCCCC1=C(C)C(=O)C(C)=C(C)C1=O [Pattern A, 2,3,5-trimethyl-6-nonylcyclohexa-2,5-diene-1,4-dione]",0.08,0.01,0.01,not hygroscopic,0.08,310,0.31# mg/mL,0.53,BDL,BDL,0.01,BDL,0.29,200,BDL,BDL,Pattern A,did not show any impurities,–
"CN1CC=C(c2ccccc2)CC1 [MPTP, 1-methyl-4-phenyl-1,2,3,6-tetrahydropyridine, reference compound]",–,–,–,–,–,–,–,–,–,–,–,–,–,–,–,–,–,–,~74
